Laboratory results taken from patent US20200289434A1, “RAPIDLY IMPROVING ENDOTHELIAL FUNCTION, REDUCING ARTERIAL STIFFNESS AND REVERSING CALCIFICATION OF BLOOD VESSELS BY ADMINISTERING VITAMIN K” (KAYDENCE PHARMA AS, priority 2019, published 2020).

Experiments:
ApoE/LDLR−/− mice [1] = assay: Example 3 first part: MRI assessment of endothelium-dependent vasodilatation (FMD in FA, Ach in AA), young mice; assay type: in vivo
Experimental: Mice were randomly assigned to one of four experimental groups: control (untreated group) and three groups treated with vitamin K2 at a dose of 0.05, 0.5, and 5 mg/kg b.w./day, respectively. End-point measurements were performed at the age of 10-16 weeks.
Magnetic resonance imaging (MRI) experiments were performed using a 9.4T scanner (BioSpec 94/20 USR, Bruker, Germany) located in the Department of Magnetic Resonance Imaging, Institute of Nuclear Physics, Polish Academy of Sciences in Krakow. During the experiment, mice were anaesthetized using isoflurane (Aerrane, Baxter Sp. z o. o., Poland, 1.7 vol %) in an oxygen and air (1:2) mixture and imaged in the supine position. Activity of the heart, respiration, and body temperature (maintained at 37° C. using circulating warm water) were monitored using a Monitoring and Gating System (SA Inc., Stony Brook, N.Y., USA).
Endothelial function was assessed based on vascular responses to acetylcholine (Ach) administration in brachiocephalic artery (BCA), left common carotid artery (LCA) (FIGS. 6 A and B) and abdominal aorta (AA) (FIG. 6C) as well as to responses to increase in flow (flow-mediated dilatation, FMD) in femoral artery (FA) (FIG. 6D) as described in Bar A, Skorka T, Jasinski K, Sternak M, Bartel Z, Tyrankiewicz U, et al. Retrospectively-gated MRI for in vivo assessment of endothelium-dependent vasodilatation and endothelial permeability in murine models of endothelial dysfunction. NMR Biomed 2016; 29(8):1088.; Sternak M, Bar A, Adamski M G, Mohaissen T, Marczyk B, Kieronska A, et al. The Deletion of Endothelial Sodium Channel α (αENaC) Impairs Endothelium-Dependent Vasodilation and Endothelial Barrier Integrity in Endotoxemia in Vivo. Front Pharmacol 2018; 9:178. doi:10.3389/fphar.2018.00178.; and Bar A, Olkowicz M, Tyrankiewicz U, Kus E, Jasinski K, Smolenski R T, et al. Functional and Biochemical Endothelial Profiling In Vivo in a Murine Model of Endothelial Dysfunction; Comparison of Effects of 1-Methylnicotinamide and Angiotensin-converting Enzyme Inhibitor. Front Pharmacol 2017; 8:183. doi:10.3389/fphar.2017.00183.).
Vasomotor response was examined by comparing two time-resolved 3D images of the vessels prior to and 25 minutes after intraperitoneal Ach administration (Sigma-Aldrich, Poznan Poland: 50 μl, 16.6 mg/kg), as well as prior to and 5 minutes after vessel occlusion. Images were acquired using the cine IntraGate™ FLASH 3D sequence, reconstructed with the IntraGate 1.2.b.2 macro (Bruker). End-diastolic volumes of vessels were analyzed using ImageJ software 1.46r (NIH Bethesda, Md., USA) and scripts written in Matlab (MathWorks, Natick, Mass., USA). Imaging parameters included the following: repetition time (TR)—6.4 ms, echo time (TE)—1.4 ms, field of view (FOV)—30×30×5 mm3, matrix size—256×256×30, flip angle (FA)—30°, and number of accumulations (NA)—15, reconstructed to 7 cardiac frames. Total scan time was 10 minutes.

ApoE/LDLR−/− mice [2] = assay: Example 2: nitrite and nitrate concentration in plasma (ENO-20); assay type: in vivo; details: two months
Experimental: Nitrite (NO2−) and nitrate (NO3−) concentration in plasma—HPLC-based ENO-20
Blood samples were collected from heart into test tubes containing additional anticoagulant and centrifuged at 1000 g for 10 min at 4° C. The samples were used for HPLC measurement of nitrate (NO3^−) and nitrite (NO2^−) concentrations in plasma by an ENO-20 NOx Analyzer.

[3] = system: endothelial nitric oxide synthase (eNOS)-dependent nitric oxide (NO) production; assay: Example 3: endothelial NO production in ex vivo aorta by EPR; details: 0.05 mg/kg b.w./day, vs untreated age-matched mice
Text: For measurements of endothelial nitric oxide synthase (eNOS)-dependent nitric oxide (NO) production, EPR spin-trapping with diethyldithiocarbamic acid sodium salt (DETC) was used ex vivo, as described in Przyborowski K, Proniewski B, Czarny J, Smeda M, Sitek B, Zakrzewska A, et al. Vascular Nitric Oxide-Superoxide Balance and Thrombus Formation after Acute Exercise. Med Sci Sport Exerc 2018:1. doi:10.1249/MSS.0000000000001589, with minor modifications. Isolated aorta cleared from surrounding tissue was opened longitudinally and preincubated with 10 μM L-NIL (N6-(1-Iminoethyl)-lysine, hydrochloride) in Krebs-HEPES buffer for 30 minutes at 37° C. in a well of a 48-well plate. Next, 250 μL of Fe(DETC)2 colloid was added and aorta was stimulated with calcium ionophore A23187 (the final concentration was 1 μM) and subsequently, incubated for 90 minutes at 37° C. Finally, aorta was weighed and frozen in liquid nitrogen (suspended in fresh buffer) into the middle of a 400 μL column of Krebs-Hepes buffer and stored at −80° C. until measured. EPR spectra were obtained using an X-band EPR spectrometer (EMX Plus, Bruker, Germany), equipped with a rectangular resonator cavity H102. Signals were quantified by measuring the total amplitude of the NO—Fe(DETC)2 after correction of baseline. The quantitative results of NO production assessed by EPR were expressed in AU/mg of tissue.

ApoE/LDLR−/− mice [4] = assay: Example 2: histological assessment of plaque size, composition and vessel wall area in BCA; assay type: in vivo; details: two months
Text: Plaque size and composition as well as vessel wall area (VWA) in BCA-Histological assessment, cross-section method, BCA cross-sections: total 13000 slides, Photographed: 1214 slides
For the determination of atherosclerotic plaque area and composition BCA was dissected, fixed in 4% buffered formalin and embedded in paraffin. 5 μm-thick serial sections of BCA were collected from proximal, middle and distal parts of artery. Originally developed staining with Unna's orcein combined with Martius, Scarlet and Blue trichrome (OMSB), was applied on every tenth section (50 μm interval between each section) for visualization of collagen, elastin, fibrin, red blood cells and vascular smooth muscle cells within atherosclerotic plaque. The areas of particular components of atherosclerotic plaque as well as artery lumen and wall were determined after Columbus-based software processing (FIG. 1B) using a previously developed algorithm [Gajda M, Jasztal A, Banasik T, Jasek-Gajda E, Chlopicki S. Combined orcein and martius scarlet blue (OMSB) staining for qualitative and quantitative analyses of atherosclerotic plaques in brachiocephalic arteries in apoE/LDLR−/− mice. Histochem Cell Biol 2017. doi:10.1007/s00418-017-1538-81.

[5] = 0.05 mg/kg b.w./day, eight weeks
[6] = 0.05 mg/kg b.w./day, four weeks, 15-week-old mice

In the case of `CC(C)=CCC/C(C)=C/CC/C(C)=C/CC/C(C)=C/CC/C(C)=C/CC/C(C)=C/CC/C(C)=C/CC1=C(C)C(=O)c2ccccc2C1=O` [MK-7, menaquinone-7], the “Ach response in AA, volume change” value (ApoE/LDLR−/− mice [1]; [5]) is reported as −0.65%, the “FMD in FA, volume change” value (ApoE/LDLR−/− mice [1]; [5]) is reported as 28.34% and the “Ach response in AA, volume change” value (ApoE/LDLR−/− mice [1]; [6]) is reported as −1.59%. For the same compound, the “FMD in FA, volume change” value (ApoE/LDLR−/− mice [1]; [6]) was 33.26%, the “endothelial function (FMD-FA and ACH-AA)” value (ApoE/LDLR−/− mice [1]; 0.05 mg/kg b.w./day, two weeks) was “not sufficient to improve endothelial function” and the “Ach response in AA, volume change” value (ApoE/LDLR−/− mice [1]; 0.5 mg/kg b.w./day, two weeks) was 1.52%. For the same compound, the “FMD in FA, volume change” value (ApoE/LDLR−/− mice [1]; 0.5 mg/kg b.w./day, two weeks) was 28.57%, the “Ach response in AA, volume change” value (ApoE/LDLR−/− mice [1]; 5 mg/kg b.w./day, two weeks) was 0.16% and the “FMD in FA, volume change” value (ApoE/LDLR−/− mice [1]; 5 mg/kg b.w./day, two weeks) was 26.55%. The “improvement in endothelial function compared with low dose for 4 weeks” value (ApoE/LDLR−/− mice [1]; 0.5 and 5 mg/kg b.w./day, four weeks) was “not superior”, the “concentration of NO3− in plasma” value (ApoE/LDLR−/− mice [2]; 0.03 or 10 mg/kg b.w./day) was “did not change significantly” and the “increase in NO2− concentration in plasma” value (ApoE/LDLR−/− mice [2]; high dose 10 mg/kg b.w./day) was ~42%. The “increase in NO2− concentration in plasma” value (ApoE/LDLR−/− mice [2]; low dose 0.03 mg/kg b.w./day) was “about 58%”, the “nitric oxide production in ex vivo aorta by EPR” value [3] was “increased” and the “effect on plaque size” value (ApoE/LDLR−/− mice [4]; either low or high dose) was “did not result in a beneficial effect”. The “plaque and lumen area expressed as percent of IWA” value (ApoE/LDLR−/− mice [4]; either low or high dose) was “did not change”, the “internal wall area (IWA)” value (ApoE/LDLR−/− mice [4]; lower dose, not visible for entire vessel) was “decreased only in the middle part of the vessel” and the “decrease in lipid core expressed as percent of plaque” value (ApoE/LDLR−/− mice [4]; similarly after low and high dose) was “about 17%”. The “decrease in vessel wall area (VWA) of BCA” value (ApoE/LDLR−/− mice [4]; similarly for low (0.03) and high (10 mg/kg b.w./day) dose) was “about 5%” and the “content of collagen in plaque” value (ApoE/LDLR−/− mice [4]; treated vs untreated groups) was “lack of differences”.
